Results taken from patent publication US9695155B2, “Herbicidal substituted pyrimidinyloxy benzene compounds” (E. I. DU PONT DE NEMOURS AND COMPANY, priority 2013, dated 2017).

How the values were obtained:
[1] = system: velvetleaf; assay: Test A preemergence; assay type: in vivo, Abutilon theophrasti
Outline: (§1)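 Scoring: eye-based comparison with untreated controls, 0 for no effect through 100 for complete control, at about day 10. Treatments: directed soil spray preemergence; foliar spray postemergence on 2–10 cm plants at the one- to two-leaf stage. Medium: loam soil with sand.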

[2] = system: barnyardgrass; assay: Test A postemergence; assay type: in vivo, Echinochloa crus-galli; details: for pest or weed control at 125 g/ha / pest or weed control at 500 g/ha: Echinochloa crus-galli, post-emergence, 240 h; for pest or weed control at 125 g/ha: read-out: Plant response rating, Barnyardgrass; for pest or weed control at 500 g/ha: read-out: Plant response rating Barnyardgrass
Outline: as §1

[3] = system: sedge, umbrella; assay: Test B flooded paddy test; assay type: in vivo, Cyperus difformis; details: Flood, 250 g ai/ha, 0 to 100 scale where 0 is no effect and 100 is complete control; for pest or weed control at 250 g/ha: Cyperus difformis, read-out: Plant response rating, Sedge, Umbrella
Outline: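 Plants were grown to the 2-leaf stage, then pots were flooded to 3 cm above the soil and compounds were applied directly into the paddy water. That depth was held throughout, and after 13 to 15 days in the greenhouse injury was rated visually against controls on a 0–100 scale (0 no effect, 100 complete control).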

[4] = system: velvetleaf; assay: Test C postemergence; assay type: in vivo, Abutilon theophrasti
Excerpt: (§2) Seeds of plant species selected from blackgrass (Alopecurus myosuroides), Italian ryegrass (Lolium multiflorum), wheat, winter (winter wheat, Triticum aestivum), galium (catchweed bedstraw, Galium aparine), corn (Zea mays), large (Lg) crabgrass (Digitaria sanguinalis), giant foxtail (Setaria faberii), johnsongrass (Sorghum halepense), lambsquarters (Chenopodium album), morningglory (Ipomoea coccinea), yellow nutsedge (Cyperus esculentus), pigweed (Amaranthus retroflexus), ragweed (common ragweed, Ambrosia elatior), soybean (Glycine max), barnyardgrass (Echinochloa crus-galli), oilseed rape (Brassica napus), waterhemp (common waterhemp, Amaranthus rudis), kochia (Kochia scoparia), wild oat (Avena fatua), surinam grass (Brachiaria decumbens), foxtail, green (green foxtail, Setaria viridis), goosegrass (Eleusine indica), bromegrass, downy (downy bromegrass, Bromus tectorum), nightshade (eastern black nightshade, Solanum ptycanthum), cocklebur (common cocklebur, Xanthium strumarium), cupgrass, woolly (woolly cupgrass, Eriochloa villosa), bermudagrass (Cynodon dactylon), sunflower, (common oilseed sunflower, Helianthus annuus), Russian thistle (Salsola kali), and velvetleaf (Abutilon theophrasti) were planted into a blend of loam soil and sand and treated preemergence with test chemicals formulated in a non-phytotoxic solvent mixture which included a surfactant.
(§3) At the same time, plants selected from these crop and weed species and also barley, winter (winter barley, Hordeum vulgare), windgrass (Apera spica-venti), chickweed (common chickweed, Stellaria media), deadnettle (henbit deadnettle, Lamium amplexicaule), and canarygrass (littleseed canarygrass, Phalaris minor) were planted in pots containing Redi-Earth® planting medium (Scotts Company, 14111 Scottslawn Road, Marysville, Ohio 43041) comprising spaghnum peat moss, vermiculite, wetting agent and starter nutrients and treated with postemergence applications of test chemicals formulated in the same manner. Plants ranged in height from 2 to 18 cm (1- to 4-leaf stage) for postemergence treatments. Treated plants and controls were maintained in a greenhouse for 13 to 15 days, after which time all species were compared to controls and visually evaluated. Plant response ratings, summarized in Table C, are based on a scale of 0 to 100 where 0 is no effect and 100 is complete control. A dash (-) response means no test result.

[5] = system: chickweed; assay: Test C postemergence; assay type: in vivo, Stellaria media
Excerpt: as §2, §3

[6] = system: johnsongrass; assay: Test C preemergence; assay type: in vivo, Sorghum halepense
Excerpt: as §2, §3

[7] = system: soybean; assay: Test C preemergence; assay type: in vivo, Glycine max
Excerpt: as §2, §3

[8] = system: oilseed rape; assay: Test C preemergence; assay type: in vivo, Brassica napus; details: for Oilseed Rape plant response rating: preemergence
Excerpt: as §2, §3

[9] = system: waterhemp; assay: Test C preemergence; assay type: in vivo, Amaranthus rudis; details: for Waterhemp plant response rating: preemergence
Excerpt: as §2, §3

[10] = Abutilon theophrasti, pre-emergence, 240 h, 500 g ai/ha, 0 to 100 scale, 0 no effect, 100 complete control, approx. 10 days, read-out: Velvetleaf plant response rating
[11] = 125 g ai/ha, 0 to 100 scale where 0 is no effect and 100 is complete control
[12] = 500 g ai/ha, 0 to 100 scale, 0 no effect, 100 complete control
[13] = 62 g ai/ha, preemergence, scale 0 (no effect) to 100 (complete control)
[14] = 125 g ai/ha, preemergence, scale 0 (no effect) to 100 (complete control)
[15] = 250 g ai/ha, preemergence, scale 0 (no effect) to 100 (complete control)
[16] = Preemergence, 31 g ai/ha, scale 0 to 100, 0 no effect, 100 complete control
[17] = Postemergence, 31 g ai/ha, scale 0 to 100 (0 no effect, 100 complete control), 13 to 15 days
[18] = 16 g ai/ha, preemergence, scale 0 to 100 (0 no effect, 100 complete control)
[19] = 16 g ai/ha, scale 0 to 100 (0 no effect, 100 complete control)
[20] = 62 g ai/ha, scale 0 (no effect) to 100 (complete control)
[21] = 125 g ai/ha, scale 0 (no effect) to 100 (complete control)

Fc1cnc(Oc2ccccc2-n2cc(Br)cn2)nc1 [Compound 10, 2-[2-(4-bromo-1H-pyrazol-1-yl)phenoxy]-5-fluoropyrimidine]
pest or weed control at 125 g/ha ([1]; Abutilon theophrasti, pre-emergence, 240 h, 125 g ai/ha, 0 to 100 scale where 0 is no effect and 100 is complete control, read-out: Velvetleaf plant response rating): 100%
pest or weed control at 500 g/ha [1, 10]: 100%
pest or weed control at 125 g/ha [2, 11]: 40%
pest or weed control at 500 g/ha [2, 12]: 90%
pest or weed control at 250 g/ha [3]: 50%
pest or weed control at 125 g/ha ([4]; Abutilon theophrasti, post-emergence, 125 g ai/ha, postemergence, read-out: Plant response rating (0 to 100), Velvetleaf): 70%
pest or weed control at 250 g/ha ([4]; Abutilon theophrasti, post-emergence, 250 g ai/ha, postemergence, read-out: Plant response rating (0 to 100), Velvetleaf): 90%
pest or weed control at 31 g/ha ([4]; Abutilon theophrasti, post-emergence, Postemergence, 31 g ai/ha, scale 0 to 100 (0 no effect, 100 complete control), 13 to 15 days, read-out: Plant response rating, Velvetleaf): 50%
pest or weed control at 62 g/ha ([4]; Abutilon theophrasti, post-emergence, Postemergence, 62 g ai/ha, scale 0 to 100 (0 no effect, 100 complete control), read-out: Plant response rating, Velvetleaf): 70%
pest or weed control at 125 g/ha ([5]; Stellaria media, post-emergence, 125 g ai/ha, postemergence, read-out: Plant response rating (0 to 100), Chickweed): 35%
pest or weed control at 250 g/ha ([5]; Stellaria media, post-emergence, 250 g ai/ha, postemergence, read-out: Plant response rating (0 to 100), Chickweed): 98%
pest or weed control at 31 g/ha ([5]; Stellaria media, post-emergence, Postemergence, 31 g ai/ha, scale 0 to 100 (0 no effect, 100 complete control), 13 to 15 days, read-out: Plant response rating, Chickweed): 5%
pest or weed control at 62 g/ha ([5]; Stellaria media, post-emergence, Postemergence, 62 g ai/ha, scale 0 to 100 (0 no effect, 100 complete control), read-out: Plant response rating, Chickweed): 30%

FC(F)(F)c1cnn(-c2ccccc2Oc2ncc(Cl)cn2)c1 [Compound 16]
Velvetleaf plant response rating [1, 11]: 100
Velvetleaf plant response rating ([1]; 500 g ai/ha, 0 to 100 scale, 0 no effect, 100 complete control, approx. 10 days): 100
Plant response rating, Barnyardgrass [2, 11]: 60
Plant response rating, Barnyardgrass [2, 12]: 100
Plant response rating, Sedge, Umbrella [3]: 90
Johnsongrass plant response rating [6, 13]: 85
Johnsongrass plant response rating [6, 14]: 100
Johnsongrass plant response rating [6, 15]: 100
Plant response rating, Johnsongrass [6, 16]: 0
Soybean plant response rating [7, 13]: 90
Soybean plant response rating [7, 14]: 90
Soybean plant response rating [7, 15]: 90
Plant response rating, Soybean [7, 16]: 75
Plant response rating (0 to 100), Velvetleaf ([4]; 125 g ai/ha, postemergence): 75
Plant response rating (0 to 100), Velvetleaf ([4]; 250 g ai/ha, postemergence): 75
Plant response rating, Velvetleaf [4, 17]: 60
Plant response rating (0 to 100), Chickweed ([5]; 125 g ai/ha, postemergence): 75
Plant response rating (0 to 100), Chickweed ([5]; 250 g ai/ha, postemergence): 90
Plant response rating, Chickweed [5, 17]: 40
Plant response rating, Chickweed ([5]; Postemergence, 62 g ai/ha, scale 0 to 100 (0 no effect, 100 complete control)): 65

FC(F)(F)c1cnn(-c2ccccc2Oc2ncc(Br)cn2)c1 [Compound 18, 5-bromo-2-[2-[4-(trifluoromethyl)-1H-pyrazol-1-yl]phenoxy]pyrimidine]
Plant response rating, Velvetleaf [1, 11]: 90
pest or weed control at 500 g/ha [1, 10]: 90%
pest or weed control at 125 g/ha [2, 11]: 60%
pest or weed control at 500 g/ha [2, 12]: 100%
pest or weed control at 250 g/ha [3]: 90%
pest or weed control at 62 g/ha ([6]; Sorghum halepense, pre-emergence, 62 g ai/ha, preemergence, scale 0 (no effect) to 100 (complete control), read-out: Johnsongrass plant response rating): 30%
pest or weed control at 125 g/ha ([6]; Sorghum halepense, pre-emergence, 125 g ai/ha, preemergence, scale 0 (no effect) to 100 (complete control), read-out: Johnsongrass plant response rating): 80%
pest or weed control at 250 g/ha ([6]; Sorghum halepense, pre-emergence, 250 g ai/ha, preemergence, scale 0 (no effect) to 100 (complete control), read-out: Johnsongrass plant response rating): 98%
pest or weed control at 31 g/ha ([6]; Sorghum halepense, pre-emergence, Preemergence, 31 g ai/ha, scale 0 to 100, 0 no effect, 100 complete control, read-out: Plant response rating, Johnsongrass): 30%
plant injury at 62 g/ha ([7]; Glycine max, pre-emergence, 62 g ai/ha, preemergence, scale 0 (no effect) to 100 (complete control), read-out: Soybean plant response rating): 65%
plant injury at 125 g/ha ([7]; Glycine max, pre-emergence, 125 g ai/ha, preemergence, scale 0 (no effect) to 100 (complete control), read-out: Soybean plant response rating): 85%
plant injury at 250 g/ha ([7]; Glycine max, pre-emergence, 250 g ai/ha, preemergence, scale 0 (no effect) to 100 (complete control), read-out: Soybean plant response rating): 85%
plant injury at 31 g/ha ([7]; Glycine max, pre-emergence, Preemergence, 31 g ai/ha, scale 0 to 100, 0 no effect, 100 complete control, read-out: Plant response rating, Soybean): 25%

Fc1cnc(Oc2cccc(C(F)F)c2-n2cc(Br)cn2)nc1 [Compound 112]
Plant response rating, Velvetleaf [1, 11]: 90
Plant response rating, Barnyardgrass [2, 11]: 40
Plant response rating, Barnyardgrass ([2]; 500 g ai/ha, 0 to 100 scale where 0 is no effect and 100 is complete control): 90
Plant response rating, Sedge, Umbrella [3]: 85
Johnsongrass plant response rating [6, 18]: 0
Johnsongrass plant response rating [6, 13]: 20
Johnsongrass plant response rating [6, 14]: 40
Plant response rating, Johnsongrass [6, 16]: 5
Soybean plant response rating [7, 18]: 10
Soybean plant response rating [7, 13]: 50
Soybean plant response rating [7, 14]: 95
Plant response rating, Soybean [7, 16]: 35
Oilseed Rape plant response rating [8, 19]: 65
Oilseed Rape plant response rating [8, 20]: 95
Oilseed Rape plant response rating [8, 21]: 100
Plant response rating, Oilseed Rape [8, 16]: 90
Waterhemp plant response rating [9, 19]: 90
Waterhemp plant response rating [9, 20]: 100
Waterhemp plant response rating [9, 21]: 100
Plant response rating, Waterhemp [9, 16]: 98
